Read-outs that look alike come from different tables or passages of the source.
Tests used:
[1] = biological target: T1, human orexin 1 receptors (Homo sapiens, UniProt O43613); test: Calcium accumulation in cells (FLIPR), hOx1R; details: for inhibition at 10 µM: read-out: FLIPR hOx1R % inhibition value
T1 sequence (O43613 1-425): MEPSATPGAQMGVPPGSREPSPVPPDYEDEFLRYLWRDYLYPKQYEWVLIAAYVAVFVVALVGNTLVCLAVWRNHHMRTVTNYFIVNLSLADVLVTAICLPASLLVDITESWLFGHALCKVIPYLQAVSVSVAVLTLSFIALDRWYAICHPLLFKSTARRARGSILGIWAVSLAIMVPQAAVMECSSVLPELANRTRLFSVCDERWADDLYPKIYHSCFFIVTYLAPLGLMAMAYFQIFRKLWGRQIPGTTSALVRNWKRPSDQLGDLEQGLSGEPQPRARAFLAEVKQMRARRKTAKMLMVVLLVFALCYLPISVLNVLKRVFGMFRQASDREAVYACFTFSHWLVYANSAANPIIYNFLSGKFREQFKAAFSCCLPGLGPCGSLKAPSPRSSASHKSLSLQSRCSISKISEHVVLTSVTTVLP

[2] = biological target: T2, human orexin 2 receptors (Homo sapiens, UniProt O43614); test: Radioligand binding assay ([3H]-SB649868 competition), hOx2R
T2 sequence (O43614 1-444): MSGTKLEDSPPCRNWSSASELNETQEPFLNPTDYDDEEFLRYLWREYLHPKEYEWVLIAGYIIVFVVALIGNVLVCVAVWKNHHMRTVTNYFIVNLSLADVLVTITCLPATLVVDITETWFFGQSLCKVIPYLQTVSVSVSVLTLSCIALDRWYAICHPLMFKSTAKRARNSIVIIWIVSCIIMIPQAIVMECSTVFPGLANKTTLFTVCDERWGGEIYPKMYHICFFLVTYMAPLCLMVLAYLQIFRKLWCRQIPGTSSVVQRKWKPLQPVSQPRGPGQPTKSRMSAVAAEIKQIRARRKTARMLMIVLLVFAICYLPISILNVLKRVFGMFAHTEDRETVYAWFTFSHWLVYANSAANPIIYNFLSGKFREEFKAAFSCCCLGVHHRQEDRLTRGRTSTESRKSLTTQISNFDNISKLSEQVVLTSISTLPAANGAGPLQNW
Method in brief: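 Membranes were incubated 1 h at room temperature in 10 mM HEPES pH 7.5 with 0.5% BSA, 5 mM MgCl2, 1 mM CaCl2 and 0.05% Tween, with about 1 nM [3H]-SB649868 and test compounds in triplicate. Non-specific binding was defined with 10 μM almorexant, and bound radioactivity was counted.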

[3] = biological target: T2, human orexin 2 receptors; test: Calcium accumulation in cells (FLIPR), hOx2R; assay type: cell-based; details: cells expressing human orexin 2 receptor; inhibition of orexin A-induced calcium accumulation; Cheng and Prusoff correction
[4] = biological target: T1, human orexin 1 receptors; test: Radioligand binding assay ([3H]-SB649868 competition), hOx1R; details: competition with about 1 nM [3H]-SB649868; CHO or HEK cell membranes expressing human orexin 1 receptor
Method in brief: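 Membranes from hOx1R-expressing cells incubated 1 h at room temperature with about 1 nM [3H]-SB649868 and test compound, in triplicate. Buffer was 10 mM HEPES pH 7.5, 0.5% BSA, 5 mM MgCl2, 1 mM CaCl2, 0.05% tween; 10 μM almorexant defined non-specific binding. Filtration then counting of bound radioactivity; values reported as Kd.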

[5] = competition with about 1 nM [3H]-SB649868, CHO or HEK cell membranes expressing human orexin 2 receptor, read-out: binding hOx2R Kd

Structure (SMILES) | inhibition at 10 µM [1] | Kd [2, 5] | Ki [3] | Kd [4] | Ki [1] | Kd [2]
N#Cc1ccnc(N2CCC3(CCCC(=O)N3Cc3cccc4[nH]ccc34)CC2)c1 [Example 91, 2-(1-((1H-indol-4-yl)methyl)-2-oxo-1,9-diazaspiro[5.5]undecan-9-yl)isonicotinonitrile] | 26% | 0.27 µM | 0.017 µM | > 10 µM |  | 
N#Cc1cccc(N2CCC3(CCCC(=O)N3Cc3cccc4[nH]ccc34)CC2)n1 [Example 92, 6-(1-((1H-indol-4-yl)methyl)-2-oxo-1,9-diazaspiro[5.5]undecan-9-yl)picolinonitrile] |  | 1.15 µM | 0.104 µM | > 10 µM | 2.58 µM | 
Cc1cc(C)nc(N2CCC3(CCCN(Cc4ccccc4-c4ncco4)C3=O)CC2)n1 [Example 93, 9-(4,6-dimethylpyrimidin-2-yl)-2-(2-(oxazol-2-yl)benzyl)-2,9-diazaspiro[5.5]undecan-1-one] |  | 0.091 µM | 0.016 µM | 4.13 µM | 1.4 µM | 
Cc1ccnc(N2CCC3(CCCC(=O)N3Cc3cccc4[nH]c(C)cc34)CC2)n1 [Example 96, 1-((2-methyl-1H-indol-4-yl)methyl)-9-(4-methylpyrimidin-2-yl)-1,9-diazaspiro[5.5]undecan-2-one] |  | 0.09 µM | 0.018 µM | 1.94 µM | 0.866 µM | 
Cc1nc(N2CCC3(CCCN(Cc4c[nH]c5ccccc45)C3=O)CC2)ncc1F [Example 102, 2-((1H-indol-3-yl)methyl)-9-(5-fluoro-4-methylpyrimidin-2-yl)-2,9-diazaspiro[5.5]undecan-1-one] |  | 0.059 µM | 0.04 µM | 1.16 µM | 1.07 µM | 
Cc1cc(C)nc(N2CCC3(CCCN(Cc4c[nH]c5c(C)cccc45)C3=O)CC2)n1 [Example 103, 9-(4,6-dimethylpyrimidin-2-yl)-2-((7-methyl-1H-indol-3-yl)methyl)-2,9-diazaspiro[5.5]undecan-1-one] |  | 0.035 µM | 0.026 µM | 1.77 µM | 1.9 µM | 
Cc1ccc2[nH]cc(CN3CCCC4(CCN(c5nc(C)cc(C)n5)CC4)C3=O)c2c1 [Example 104, 9-(4,6-dimethylpyrimidin-2-yl)-2-((5-methyl-1H-indol-3-yl)methyl)-2,9-diazaspiro[5.5]undecan-1-one] |  | 0.025 µM | 0.0048 µM | 1.02 µM | 0.292 µM | 
Cc1cc(C)nc(N2CCC3(CCCN(Cc4c[nH]c5ccc(C#N)cc45)C3=O)CC2)n1 [Example 105, 3-((9-(4,6-dimethylpyrimidin-2-yl)-1-oxo-2,9-diazaspiro[5.5]undecan-2-yl)methyl)-1H-indole-5-carbonitrile] |  | 0.025 µM | 0.0033 µM | 0.655 µM | 0.295 µM | 
Cc1cc(C)nc(N2CCC3(CCCN(Cc4n[nH]cc4-c4ccccc4)C3=O)CC2)n1 [Example 106, 9-(4,6-dimethylpyrimidin-2-yl)-2-((4-phenyl-1H-pyrazol-3-yl)methyl)-2,9-diazaspiro[5.5]undecan-1-one] |  | 0.049 µM | 0.0033 µM | 1.83 µM | 0.763 µM | 
Cc1cc(C)nc(N2CCC3(CCCN(Cc4nn(C)cc4-c4ccccc4)C3=O)CC2)n1 [Example 107, 9-(4,6-dimethylpyrimidin-2-yl)-2-((1-methyl-4-phenyl-1H-pyrazol-3-yl)methyl)-2,9-diazaspiro[5.5]undecan-1-one] |  | 0.166 µM | 0.02 µM | 2.25 µM | 0.833 µM | 
Cc1cc(C)nc(N2CCC3(CCCN(Cc4nc(C)oc4-c4ccccc4)C3=O)CC2)n1 [Example 108, 9-(4,6-dimethylpyrimidin-2-yl)-2-((2-methyl-5-phenyloxazol-4-yl)methyl)-2,9-diazaspiro[5.5]undecan-1-one] |  | 0.072 µM | 0.018 µM | 0.852 µM | 0.507 µM | 
Cc1cc(C)nc(N2CCC3(CCCN(Cc4nc(C)sc4-c4ccccc4)C3=O)CC2)n1 [Example 109, 9-(4,6-dimethylpyrimidin-2-yl)-2-((2-methyl-5-phenylthiazol-4-yl)methyl)-2,9-diazaspiro[5.5]undecan-1-one] |  | 0.188 µM | 0.042 µM | 2.56 µM | 1.37 µM | 
COc1cccc(-c2sc(C)nc2CN2CCCC3(CCN(c4nc(C)cc(C)n4)CC3)C2=O)c1 [Example 110, 9-(4,6-dimethylpyrimidin-2-yl)-2-((5-(3-methoxyphenyl)-2-methylthiazol-4-yl)methyl)-2,9-diazaspiro[5.5]undecan-1-one] |  | 0.007 µM | 0.0038 µM | 0.236 µM | 0.213 µM | 
CCc1cc(C)nc(N2CCC3(CCCN(Cc4c[nH]c5ccccc45)C3=O)CC2)n1 [Example 111, 2-((1H-indol-3-yl)methyl)-9-(4-ethyl-6-methylpyrimidin-2-yl)-2,9-diazaspiro[5.5]undecan-1-one] |  | 0.044 µM | 0.011 µM | 0.835 µM | 0.761 µM | 
COc1cc(C)nc(N2CCC3(CCCN(Cc4n[nH]c5ccccc45)C3=O)CC2)n1 [Example 112, 2-((1H-indazol-3-yl)methyl)-9-(4-methoxy-6-methylpyrimidin-2-yl)-2,9-diazaspiro[5.5]undecan-1-one] |  | 0.082 µM | 0.0061 µM | 0.912 µM | 0.255 µM | 
Cc1cc(N(C)C)nc(N2CCC3(CCCN(Cc4c[nH]c5ccccc45)C3=O)CC2)n1 [Example 113, 2-((1H-indol-3-yl)methyl)-9-(4-(dimethylamino)-6-methylpyrimidin-2-yl)-2,9-diazaspiro[5.5]undecan-1-one] |  | 0.028 µM | 0.021 µM | 0.389 µM | 1.43 µM | 
COc1ccnc(N2CCC3(CCCN(Cc4ccccc4-c4nc(C)no4)C3=O)CC2)n1 [Example 114, 9-(4-methoxypyrimidin-2-yl)-2-(2-(3-methyl-1,2,4-oxadiazol-5-yl)benzyl)-2,9-diazaspiro[5.5]undecan-1-one] |  | 0.231 µM | 0.03 µM | 2.14 µM | 1.53 µM | 
COCc1ccc2[nH]cc(CN3CCCC4(CCN(c5nc(C)cc(C)n5)CC4)C3=O)c2c1 [Example 116, 9-(4,6-dimethylpyrimidin-2-yl)-2-((5-(methoxymethyl)-1H-indol-3-yl)methyl)-2,9-diazaspiro[5.5]undecan-1-one] |  | 0.002 µM | 0.0003 µM | 0.094 µM | 0.033 µM | 
Cc1cc(C)nc(N2CCC3(CCCN(Cc4c[nH]c5ccc(-n6cccn6)cc45)C3=O)CC2)n1 [Example 117, 2-((5-(1H-pyrazol-1-yl)-1H-indol-3-yl)methyl)-9-(4,6-dimethylpyrimidin-2-yl)-2,9-diazaspiro[5.5]undecan-1-one] |  | 0.027 µM | 0.0013 µM | 1.02 µM | 0.037 µM | 
Cc1cc(C)nc(N2CCC3(CCCN(Cc4nn(C)nc4Br)C3=O)CC2)n1 [Example 118, 2-((5-bromo-2-methyl-2H-1,2,3-triazol-4-yl)methyl)-9-(4,6-dimethylpyrimidin-2-yl)-2,9-diazaspiro[5.5]undecan-1-one] |  | 0.178 µM | 0.079 µM | 2.11 µM | 3.58 µM | 
COCc1cccc(-c2nn(C)nc2CN2CCCC3(CCN(c4nc(C)cc(C)n4)CC3)C2=O)c1 [Example 119, 9-(4,6-dimethylpyrimidin-2-yl)-2-((5-(3-(methoxymethyl)phenyl)-2-methyl-2H-1,2,3-triazol-4-yl)methyl)-2,9-diazaspiro[5.5]undecan-1-one] |  |  | 0.0039 µM | 1.33 µM | 0.868 µM | 0.028 µM
COc1cccc(-c2nn(C)nc2CN2CCCC3(CCN(c4nc(C)cc(C)n4)CC3)C2=O)n1 [Example 120, 9-(4,6-dimethylpyrimidin-2-yl)-2-((5-(6-methoxypyridin-2-yl)-2-methyl-2H-1,2,3-triazol-4-yl)methyl)-2,9-diazaspiro[5.5]undecan-1-one] | 29% | 0.197 µM | 0.032 µM | > 10 µM |  | 

Reference: patent US20120101110A1, “Diaza-spiro[5.5]undecanes” (priority 2010, published 2012)
